Activation data for 18 compounds are collected here from US20180044304A1, “1,3,4-OXADIAZOLE AND THIADIAZOLE COMPOUNDS AS IMMUNOMODULATORS” (AURIGENE DISCOVERY TECHNOLOGIES LIMITED, priority 2015, published 2018).

In the test the target is T1, Recombinant mouse PD-L1 (Mus musculus, UniProt Q9EP73).
T1 construct: Fc (Fc chimera); purchased R&D Systems 1019-B7-100
T1 sequence (Q9EP73 with tags, fused parts or gaps limits assumed): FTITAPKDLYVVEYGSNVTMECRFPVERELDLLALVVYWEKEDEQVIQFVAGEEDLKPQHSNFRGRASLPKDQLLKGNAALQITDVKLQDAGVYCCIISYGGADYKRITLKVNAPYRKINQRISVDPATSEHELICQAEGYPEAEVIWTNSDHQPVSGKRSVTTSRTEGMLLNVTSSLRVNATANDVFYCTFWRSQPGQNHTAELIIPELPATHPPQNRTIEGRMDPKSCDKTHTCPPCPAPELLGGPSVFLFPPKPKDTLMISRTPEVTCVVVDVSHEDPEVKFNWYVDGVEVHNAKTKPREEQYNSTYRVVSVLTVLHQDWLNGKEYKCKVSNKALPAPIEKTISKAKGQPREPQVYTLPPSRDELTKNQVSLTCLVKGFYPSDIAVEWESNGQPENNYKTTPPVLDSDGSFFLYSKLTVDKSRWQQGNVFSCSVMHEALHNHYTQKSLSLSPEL
Nature of the test: Rescue of mouse splenocyte proliferation in the presence of recombinant PD-L1 (CFSE proliferation assay). The note with it: 100 nM compound; anti-CD3/CD28 stimulated C57 BL6 mouse splenocytes with PD-L1; 72 h; stimulated splenocyte proliferation = 100%; read-out: Percent rescue of splenocyte proliferation (@100 nM compound concentration). Type of test: cell-based. How it is done:
Rescue of Mouse Splenocyte Proliferation in the Presence of Recombinant PD-L1
Recombinant mouse PD-L1 (rm-PDL-1, cat no: 1019-B7-100; R&D Systems) were used as the source of PD-L1.
Mouse splenocytes harvested from 6-8 weeks old C57 BL6 mice; RPMI 1640 (GIBCO, Cat #11875); DMEM with high glucose (GIBCO, Cat #D6429); Fetal Bovine Serum [Hyclone, Cat #SH30071.03]; Penicillin (10000 unit/mL)-Streptomycin(10,000 μg/mL) Liquid (GIBCO, Cat #15140-122); MEM Sodium Pyruvate solution 100 mM (100×), Liquid (GIBCO, Cat #11360); Nonessential amino acid (GIBCO, Cat #11140); L-Glutamine (GIBCO, Cat #25030); Anti-CD3 antibody (eBiosciences—16-0032); Anti-CD28 antibody (eBiosciences—16-0281); ACK lysis buffer (1 mL) (GIBCO, Cat #-A10492); Histopaque (density-1.083 gm/mL) (SIGMA 10831); Trypan blue solution (SIGMA-T8154); 2 mL Norm Ject Luer Lock syringe-(Sigma 2014-12); 40 μm nylon cell strainer (BD FALCON 35230); Hemacytometer (Bright line-SIGMA Z359629); FACS Buffer (PBS/0.1% BSA): Phosphate Buffered Saline (PBS) pH 7.2 (HiMedia TS1006) with 0.1% Bovine Serum Albumin (BSA) (SIGMA A7050) and sodium azide (SIGMA 08591); 5 mM stock solution of CFSE: CFSE stock solution was prepared by diluting lyophilized CFSE with 180 μl of Dimethyl sulfoxide (DMSO C2H6SO, SIGMA-D-5879) and aliquoted in to tubes for further use. Working concentrations were titrated from 10 μM to 1 μM. (eBioscience-650850-85); 0.05% Trypsin and 0.02% EDTA (SIGMA 59417C); 96-well format ELISA plates (Corning CLS3390); BD FACS caliber (E6016); Recombinant mouse B7-H1/PDL1 Fc Chimera, (rm-PD-L1 cat no: 1019-B7-100).
Splenocytes harvested in a 50 mL falcon tube by mashing mouse spleen in a 40 μm cell strainer were further treated with 1 mL ACK lysis buffer for 5 min at room temperature. After washing with 9 mL of RPMI complete media, cells were re-suspended in 3 mL of 1× PBS in a 15 mL tube. 3 mL of Histopaque was added carefully to the bottom of the tube without disturbing overlaying splenocyte suspension. After centrifuging at 800×g for 20 min at room temperature, the opaque layer of splenocytes was collected carefully without disturbing/mixing the layers. Splenocytes were washed twice with cold 1× PBS followed by total cell counting using Trypan Blue exclusion method and used further for cell based assays.
Splenocytes were cultured in RPMI complete media (RPMI+10% fetal bovine serum+1 mM sodium pyruvate+10,000 units/mL penicillin and 10,000 μg/mL streptomycin) and maintained in a CO2 incubator with 5% CO2 at 37° C.
CFSE is a dye that passively diffuses into cells and binds to intracellular proteins. 1×10^6 cells/mL of harvested splenocytes were treated with 5 μM of CFSE in pre-warmed 1× PBS/0.1% BSA solution for 10 min at 37° C. Excess CFSE was quenched using 5 volumes of ice-cold culture media to the cells and incubated on ice for 5 min. CFSE labelled splenocytes were further given three washes with ice cold complete RPMI media. CFSE labelled 1×10^5 splenocytes added to wells containing either MDA-MB231 cells (1×10^5 cells cultured in high glucose DMEM medium) or recombinant human PDL-1 (100 ng/mL) and test compounds. Splenocytes were stimulated with anti-mouse CD3 and anti-mouse CD28 antibody (1 μg/mL each) and the culture was further incubated for 72 h at 37° C. with 5% CO2. Cells were harvested and washed thrice with ice cold FACS buffer and % proliferation was analysed by flow cytometry with 488 nm excitation and 521 nm emission filters.
Percent splenocyte proliferation was analysed using cell quest FACS program and percent rescue of splenocyte proliferation by compound was estimated after deduction of % background proliferation value and normalising to % stimulated splenocyte proliferation (positive control) as 100%. • Stimulated splenocytes: Splenocytes+anti-CD3/CD28 stimulation • Background proliferation: Splenocytes+anti-CD3/CD28+PD-L1 • Compound proliferation: Splenocytes+anti-CD3/CD28+PD-L1+Compound […]
With `CSC[C@H](N)c1nnc([C@H](CC(N)=O)NC(=O)N[C@H](C(=O)O)C(C)O)o1` (stereo partly drawn) [Compound 24], the activation at 0.1 µM was determined as 47%.

Turning to `CC(O)[C@H](NC(=O)N[C@@H](CC(N)=O)c1nnc([C@@H](N)CCCCN)o1)C(=O)O` (stereo partly drawn) [Compound 4], the activation at 0.1 µM was 70%.

For `N[C@@H](Cc1ccc(O)cc1)c1nnc([C@@H]2CCCN2C(=O)N[C@@H](Cc2ccc(O)cc2)C(=O)O)o1` [Compound 8], the activation at 0.1 µM was 60%.

`NC(=O)C[C@H](NC(=O)N[C@@H](CC(=O)O)C(=O)O)c1nnc([C@@H](N)CO)o1` [Compound 10]: the activation at 0.1 µM amounted to 34%.

In the case of `CCC(C)[C@H](NC(=O)N[C@@H](CCC(=O)O)C(=O)O)c1nnc([C@@H](N)CCC(=O)O)o1` (stereo partly drawn) [Compound 2], the activation at 0.1 µM came to 49%.

As to `N[C@@H](CO)c1nnc([C@H](Cc2c[nH]c3ccccc23)NC(=O)N[C@@H](CC(=O)O)C(=O)O)o1` [Compound 28], the activation at 0.1 µM came out at 66%.

As to `CC(O)[C@H](NC(=O)N[C@@H](CCCCN)c1nnc([C@@H](N)CO)o1)C(=O)O` (stereo partly drawn) [Compound 6], the activation at 0.1 µM worked out at 30%.

For the compound `CC(O)[C@H](NC(=O)N[C@H](c1nnc([C@@H](N)C(C)O)o1)C(C)O)C(=O)O` (stereo partly drawn) [Compound 9], the activation at 0.1 µM was 29%.

Consider `CCC(C)[C@H](N)c1nnc([C@@H](NC(=O)N[C@@H](CCC(=O)O)C(=O)O)C(C)CC)o1` (stereo partly drawn) [Compound 12], for which the activation at 0.1 µM was 68%.

With `CCC(C)[C@H](NC(=O)N[C@H](C(=O)O)C(C)O)c1nnc([C@@H](N)CO)o1` (stereo partly drawn) [Compound 5], the activation at 0.1 µM was found to be 16%.

For `NCCCC[C@H](N)c1nnc([C@H](CC(N)=O)NC(=O)N[C@@H](CCC(=O)O)C(=O)O)o1` [Compound 1], the activation at 0.1 µM was found to be 79%.

Regarding `NCCCC[C@H](NC(=O)N[C@@H](CC(N)=O)c1nnc([C@@H](N)CO)o1)C(=O)O` [Compound 13], the activation at 0.1 µM is 29%.

Turning to `NC(=O)C[C@H](NC(=O)N[C@@H](Cc1ccccc1)C(=O)O)c1nnc([C@@H](N)CO)o1` [Compound 15], the activation at 0.1 µM stood at 23%.

`NC(=O)CC[C@H](NC(=O)N[C@@H](CO)c1nnc([C@@H](N)Cc2c[nH]c3ccccc23)o1)C(=O)O` [Compound 20]: the activation at 0.1 µM was determined as 74%.

For `CC(O)[C@H](NC(=O)N[C@@H](CCC(=O)O)c1nnc([C@@H](N)CCCCN)o1)C(=O)O` (stereo partly drawn) [Compound 18], the activation at 0.1 µM was found to be 41%.

On to `NCCCC[C@H](N)c1nnc([C@H](CC(N)=O)NC(=O)N[C@@H](CO)C(=O)O)o1` [Compound 11], for which the activation at 0.1 µM is 30%.

In the case of `CC(O)[C@H](NC(=O)N[C@@H](Cc1ccccc1)c1nnc([C@@H](N)CO)o1)C(=O)O` (stereo partly drawn) [Compound 7], the activation at 0.1 µM amounted to 29%.

Consider `CC(O)[C@H](NC(=O)N[C@@H](CC(N)=O)c1nnc([C@@H](N)CC(=O)O)o1)C(=O)O` (stereo partly drawn) [Compound 16], for which the activation at 0.1 µM was determined as 37%.
